From US7297714B2, “Inhibitors of cathepsin S” (IRM LLC, priority 2003, dated 2007)

What was measured:
Format in all cases: biochemical
Caspase 3 = molecular target: T1, Caspase 3 (Homo sapiens, UniProt P42574); assay: Inhibition Assay for Caspase 3; conditions: Caspase-3 inhibition constant; pH7.4; read-out: Ki Cas-3
T1 sequence (P42574 29-175 limits assumed): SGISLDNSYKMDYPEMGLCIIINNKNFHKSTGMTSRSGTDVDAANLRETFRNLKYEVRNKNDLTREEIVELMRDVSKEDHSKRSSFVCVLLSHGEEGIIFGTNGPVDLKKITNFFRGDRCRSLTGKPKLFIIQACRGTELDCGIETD
T1 sequence (P42574 176-277 limits assumed): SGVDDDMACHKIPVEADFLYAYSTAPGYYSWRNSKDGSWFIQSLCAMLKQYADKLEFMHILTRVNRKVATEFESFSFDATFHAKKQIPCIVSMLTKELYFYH
Protocol: The widely used substrate for caspase 3, acetyl-aspartate-glutamate-valine-aspartic acid-amino carbamoyl coumarin, was used. Kinetic measurements are performed in a total reaction volume of 30 μl in 384-well microtiter plates. Caspase 3, at a final concentration of 0.2-1 nM (active site), is incubated with the compounds at twelve varying concentrations in a buffer containing 20 mM Hepes (pH7.4), 1 mM EDTA, 100 mM NaCl, 0.1% CHAPS, 10% sucrose, 10 mM DTT for 20 minutes at room temperature. Control reactions in the absence of inhibitor are performed in replicates of 12. The reactions are initiated by adding the substrate to a final concentration of 2 μM. The rate of substrate hydrolysis is measured by monitoring the increase in fluorescence at an excitation wavelength of 380 nm and an emission wavelength of 450 nm that results from cleavage of the aniline bond in the substrate by the enzyme. The apparent inhibition constants for the compounds are determined from the enzyme progress curves (Kuzmic, Elrod et al. 2000) and are then used to calculate the inhibition constants for competitive inhibitors (Km=9.71 μM).

Cathepsin S = Cathepsin S (Homo sapiens, UniProt P25774); assay: Cathepsin S inhibition assay (fluorogenic peptide substrate); conditions: Cathepsin S inhibition constant; pH5.5; read-out: Ki Cat. S
Chain of Cathepsin S (P25774 115-331, species assumed): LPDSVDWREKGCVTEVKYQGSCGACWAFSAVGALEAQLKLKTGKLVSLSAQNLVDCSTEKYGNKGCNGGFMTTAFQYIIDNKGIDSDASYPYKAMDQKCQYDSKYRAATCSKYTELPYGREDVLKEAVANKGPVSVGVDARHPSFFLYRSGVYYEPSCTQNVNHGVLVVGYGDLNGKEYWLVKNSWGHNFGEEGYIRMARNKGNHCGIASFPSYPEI
Description: “Inhibition constant”, Ki, is the dissociation constant of the enzyme-inhibitor complex, or the reciprocal of the binding affinity of the inhibitor to the enzyme. For classical inhibition the value of Ki is much greater than the enzyme concentration and the Ki can be measured by monitoring the rate of reaction for a competitive substrate at multiple inhibitor concentrations. The inhibited rates are then fit by nonlinear regression to the following equation: […]
The assumption being made for the classical inhibition described above is that the free inhibitor concentration is equal to the total inhibitor concentration. For inhibitors that have Ki's that are approximately equal to the enzyme concentration [E], the assumption that the free inhibitor concentration is equal to the total inhibitor concentration is no longer valid and an alternative equation has to be fit for determination of the apparent inhibition constant, Ki^app using described methods (Kuzmic, P., K. C. Elrod, et al., Anal Biochem 2000, 286(1), 45-50):
(§1) The optimal substrate for cathepsin S, acetyl-histidine-proline-valine-lysine-amino carbamoyl coumarin, was identified from screening a combinatorial library of fluorogenic peptide substrates (Harris, J. L., B. J. Backes, et al., Proc Natl Acad Sci U S A 2000, 97(14), 7754-9). Kinetic measurements are performed in a total reaction volume of 30 μl in 384-well microtiter plates. Cathepsin S, at a final concentration of 0.3-3 nM (active site), is incubated with the compounds at twelve varying concentrations in a buffer containing 100 mM NaAc (pH5.5), 1 mM EDTA, 100 mM NaCl, 0.01% Brij-35 for 20 minutes at room temperature. Control reactions in the absence of inhibitor are performed in replicates of 24. The reactions are initiated by adding the substrate, acetyl-histidine-proline-valine-lysine-amino carbamoyl coumarin, to a final concentration of 50 μM. The rate of substrate hydrolysis is measured by monitoring the increase in fluorescence at an excitation wavelength of 380 nm and an emission wavelength of 450 nm that results from cleavage of the aniline bond in the substrate by the enzyme. The apparent inhibition constants for the compounds are determined from the enzyme progress curves (Kuzmic, P., K. C. Elrod, et al., Anal Biochem 2000, 286(1), 45-50) and are then used to calculate the inhibition constants for competitive inhibitors.

Cathepsin K = molecular target: T2, Cathepsin K (Homo sapiens, UniProt P43235); assay: Cathepsin K inhibition assay, selectivity for cathepsin S over cathepsin K; conditions: ratio of cathepsin K inhibition constant to cathepsin S inhibition constant
T2 sequence (P43235 115-329): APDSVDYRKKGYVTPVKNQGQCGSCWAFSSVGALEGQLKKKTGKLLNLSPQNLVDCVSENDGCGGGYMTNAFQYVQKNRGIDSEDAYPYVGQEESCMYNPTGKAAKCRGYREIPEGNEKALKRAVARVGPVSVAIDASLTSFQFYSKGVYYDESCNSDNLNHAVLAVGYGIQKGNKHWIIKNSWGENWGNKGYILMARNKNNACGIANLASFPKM
Protocol: as §1, with “cathepsin K, acetyl-lysine-histidine-proline-lysine-amino” for “cathepsin S, acetyl-histidine-proline-valine-lysine-amino”, “Sci USA” for “Sci U S A”, “Cathepsin K,” for “Cathepsin S,”, “of 3.5” for “of 0.3-3”, “substrate, acetyl-lysine-histidine-proline-lysine-amino” for “substrate, acetyl-histidine-proline-valine-lysine-amino”, “of 40” for “of 50”
Selectivity for cathepsin S in the presence of cathepsin isozymes was determined by the ratio of the cathepsin isozyme inhibition constant of a compound of the present invention to the cathepsin S inhibition constant of the same compound. Preferred compounds of the present invention selective for cathepsin S have ratios of greater than 10. More preferred compounds of the present invention selective for cathepsin S have ratios of greater than 100. Most preferred compounds of the present invention selective for cathepsin S have ratios of greater than 1000.

## O=C[C@H](CC(=O)O)NC(=O)[C@@H](CC(=O)N1CCOCC1)CC1CCCC1 [Example 4, (3S)-[(2R)-Cyclopentylmethyl-4-morpholin-4-yl-4-oxo-butyrylamino]-4-oxo-butyric acid]
Caspase 3
  Ki: > 10000 nM
Cathepsin S
  Ki: < 100 nM
Cathepsin K
  Selectivity for Cat. S over Cat. K: + (+, >10)

## O=C1C[C@H](NC(=O)[C@@H](CC(=O)N2CCOCC2)CC2CCCCC2)C(O)O1 (stereo partly drawn) [Example 6, (3S)-{(2R)-Cyclohexylmethyl-4-morpholin-4-yl-4-oxo-butyrylamino}-4-oxo-butyric acid]
Caspase 3
  Ki: > 10000 nM
Cathepsin S
  Ki: < 100 nM
Cathepsin K
  Selectivity for Cat. S over Cat. K: ++ (++, >100)

## O=C1C[C@H](NC(=O)[C@H](CC2CCCC2)NC(=O)c2ccc(-c3cccc(F)c3)o2)C(O)O1 (stereo partly drawn) [Example 1, (3S)-(3-Cyclopentyl-(2S)-{[5-(3-fluoro-phenyl)-furan-2-carbonyl]-amino}-propionylamino)-4-oxo-butyric acid]
Caspase 3
  Ki: > 1000 nM
Cathepsin S
  Ki: < 100 nM
Cathepsin K
  Selectivity for Cat. S over Cat. K: + (+, >10)

## O=C1C[C@H](NC(=O)[C@H](CC2CCCC2)NC(=O)N2CCOCC2)C(O)O1 (stereo partly drawn) [Example 2, (3S)-{3-Cyclopentyl-(2S)-[(morpholine-4-carbonyl)-amino]-propionylamino}-4-oxo-butyric acid]
Caspase 3
  Ki: > 10000 nM
Cathepsin S
  Ki: < 100 nM
Cathepsin K
  Selectivity for Cat. S over Cat. K: ++ (++, >100)

## O=C1C[C@H](NC(=O)O[C@@H](CC2CCCC2)Cn2cnc3cc(Cl)c(Cl)cc32)C(O)O1 (stereo partly drawn) [Example 5, (3S)-[(1S)-Cyclopentylmethyl-2-(5,6-dichloro-benzoimidazol-1-yl)-ethoxycarbonylamino]-4-oxo-butyric acid]
Caspase 3
  Ki: > 10000 nM
Cathepsin S
  Ki: < 100 nM
Cathepsin K
  Selectivity for Cat. S over Cat. K: + (+, >10)

## CC(C)(C)C[C@H](OC(=O)N[C@H]1CC(=O)OC1O)C(=O)N1CCOCC1 (stereo partly drawn) [Example 9, (3S)-[3,3-Dimethyl-(1S)-(morpholine-4-carbonyl)-butoxycarbonylamino]-4-oxo-butyric acid]
Caspase 3
  Ki: > 100000 nM
Cathepsin S
  Ki: < 100 nM

## O=C1C[C@H](NC(=O)O[C@@H](CC2CCCCC2)C(=O)N2CCOCC2)C(O)O1 (stereo partly drawn) [Example 10, (3S)-[2-cyclohexyl-(1S)-(morpholin-4-carbonyl)-ethoxycarbonylamino]-4-oxo-butyric acid]
Caspase 3
  Ki: > 100000 nM
Cathepsin S
  Ki: < 100 nM
Cathepsin K
  Selectivity for Cat. S over Cat. K: ++ (++, >100)

## O=C1C[C@H](NC(=O)[C@H](CC2CCCCC2)NS(=O)(=O)c2cccc(OC(F)(F)F)c2)C(O)O1 (stereo partly drawn) [Example 7, (3S)-[3-Cyclohexyl-(2S)-(3-trifluoromethoxy-benzenesulfonylamino)-propionylamino]-4-oxo-butyric acid]
Caspase 3
  Ki: > 10000 nM
Cathepsin S
  Ki: < 100 nM
Cathepsin K
  Selectivity for Cat. S over Cat. K: ++ (++, >100)

## O=C1C[C@H](NC(=O)[C@H](CC2CCCCC2)OC(=O)N2CCOCC2)C(O)O1 (stereo partly drawn) [Example 3, (3S)-{3-cyclohexyl-(2S)-(morpholine-4-carbonyloxy)-propionylamino}-4-oxo-butyric acid]
Caspase 3
  Ki: > 10000 nM
Cathepsin S
  Ki: < 100 nM
Cathepsin K
  Selectivity for Cat. S over Cat. K: + (+, >10)

## O=C1C[C@H](NC(=O)[C@H](CC2CCCC2)NS(=O)(=O)c2cccc(OC(F)(F)F)c2)C(O)O1 (stereo partly drawn) [Example 8, (3S)-[3-Cyclopentyl-(2S)-(3-trifluoromethoxy-benzenesulfonylamino)-propionylamino]-4-oxo-butyric acid]
Caspase 3
  Ki: > 1000 nM
Cathepsin S
  Ki: < 100 nM
Cathepsin K
  Selectivity for Cat. S over Cat. K: ++ (++, >100)
